The results in this text go back to ChEMBL document CHEMBL4715746, “Polyvalent effect enhances diglycosidic antiplasmodial activity” (Eur J Med Chem, 2016).

Data set [1] has as its system HEK293. Description: Cytotoxicity against human HEK293 cells assessed as reduction in cell viability up to 500 ug/L incubated for 24 hrs by MTT assay. Format: cell-based. The following applies: hek293, 24 h.
Data set [2] relates to HEK293. Put plainly: Cytotoxicity against human HEK293 cells assessed as reduction in cell viability at 50,000 ug/L incubated for 24 hrs by MTT assay. Format: cell-based. The following applies: hek293, 24 h.
Data set [3] concerns Plasmodium falciparum. Description: Antiplasmodial activity against chloroquine-sensitive Plasmodium falciparum 3D7 assessed as inhibition of parasite growth incubated for 48 hrs by SYBR green 1 dye based fluorescence assay. Format: functional, organism-based.
Data set [4] deals with Plasmodium falciparum. Description: Antiplasmodial activity against chloroquine-resistant Plasmodium falciparum W2 assessed as inhibition of parasite growth incubated for 48 hrs by SYBR green 1 dye based fluorescence assay. The class given is functional, organism-based.
Where [5] appears, read: Plasmodium falciparum, 3D7, 48 h.
The mark [6] stands for this setting: Plasmodium falciparum, W2, 48 h.

pIC50: −log10 of the molar value.

On to `CCN(CC)CCCC(C)Nc1ccnc2cc(Cl)ccc12` (configuration not stated) [CHLOROQUINE], for which the results for the Activity result in the data set on HEK293 [1] and in the data set on HEK293 [2] were “Non-Toxic” and “Toxic”, respectively.
For the molecule `CC(=O)OC[C@H]1O[C@@H](OCCCn2cc(COC[C@H]3O[C@@H](O[C@H]4[C@H](OCc5cn(CCCO[C@@H]6O[C@H](COC(C)=O)[C@@H](O)[C@H](O)[C@H]6O[C@@H]6O[C@@H](C)[C@H](OC(C)=O)[C@@H](OC(C)=O)[C@H]6OC(C)=O)nn5)[C@@H](OCc5cnnn5CCCO[C@@H]5O[C@H](COC(C)=O)[C@@H](O)[C@H](O)[C@H]5O[C@@H]5O[C@@H](C)[C@H](OC(C)=O)[C@@H](OC(C)=O)[C@H]5OC(C)=O)[C@H](OCc5cn(CCCO[C@@H]6O[C@H](COC(C)=O)[C@@H](O)[C@H](O)[C@H]6O[C@@H]6O[C@@H](C)[C@H](OC(C)=O)[C@@H](OC(C)=O)[C@H]6OC(C)=O)nn5)O[C@@H]4COCc4cn(CCCO[C@@H]5O[C@H](COC(C)=O)[C@@H](O)[C@H](O)[C@H]5O[C@@H]5O[C@@H](C)[C@H](OC(C)=O)[C@@H](OC(C)=O)[C@H]5OC(C)=O)nn4)[C@H](OCc4cnnn4CCCO[C@@H]4O[C@H](COC(C)=O)[C@@H](O)[C@H](O)[C@H]4O[C@@H]4O[C@@H](C)[C@H](OC(C)=O)[C@@H](OC(C)=O)[C@H]4OC(C)=O)[C@@H](OCc4cn(CCCO[C@@H]5O[C@H](COC(C)=O)[C@@H](O)[C@H](O)[C@H]5O[C@@H]5O[C@@H](C)[C@H](OC(C)=O)[C@@H](OC(C)=O)[C@H]5OC(C)=O)nn4)[C@H]3OCc3cnnn3CCCO[C@@H]3O[C@H](COC(C)=O)[C@@H](O)[C@H](O)[C@H]3O[C@@H]3O[C@@H](C)[C@H](OC(C)=O)[C@@H](OC(C)=O)[C@H]3OC(C)=O)nn2)[C@H](O[C@@H]2O[C@@H](C)[C@H](OC(C)=O)[C@@H](OC(C)=O)[C@H]2OC(C)=O)[C@@H](O)[C@@H]1O`, the negative logarithm of the IC50 (pIC50) in the data set on Plasmodium falciparum [3] was 4.55; in the data set on Plasmodium falciparum [4] it was 4.90.
Take `CC(=O)OC[C@H]1O[C@@H](OCCCn2cc(COc3cc(OCc4cnnn4CCCO[C@@H]4O[C@H](COC(C)=O)[C@@H](O)[C@H](O)[C@H]4O[C@@H]4O[C@@H](C)[C@H](OC(C)=O)[C@@H](OC(C)=O)[C@H]4OC(C)=O)cc(OCc4cnnn4CCCO[C@@H]4O[C@H](COC(C)=O)[C@@H](O)[C@H](O)[C@H]4O[C@@H]4O[C@@H](C)[C@H](OC(C)=O)[C@@H](OC(C)=O)[C@H]4OC(C)=O)c3)nn2)[C@H](O[C@@H]2O[C@@H](C)[C@H](OC(C)=O)[C@@H](OC(C)=O)[C@H]2OC(C)=O)[C@@H](O)[C@@H]1O`: the pIC50 with Plasmodium falciparum [3] (setting [5]) was 4.39; with Plasmodium falciparum [4] (setting [6]), 4.63.
The corresponding values for `CC(=O)OC[C@H]1O[C@@H](OCCCn2cc(COC[C@H]3O[C@@H](OCc4cn(CCCO[C@@H]5O[C@H](COC(C)=O)[C@@H](O)[C@H](O)[C@H]5O[C@@H]5O[C@@H](C)[C@H](OC(C)=O)[C@@H](OC(C)=O)[C@H]5OC(C)=O)nn4)[C@H](OCc4cnnn4CCCO[C@@H]4O[C@H](COC(C)=O)[C@@H](O)[C@H](O)[C@H]4O[C@@H]4O[C@@H](C)[C@H](OC(C)=O)[C@@H](OC(C)=O)[C@H]4OC(C)=O)[C@@H](OCc4cn(CCCO[C@@H]5O[C@H](COC(C)=O)[C@@H](O)[C@H](O)[C@H]5O[C@@H]5O[C@@H](C)[C@H](OC(C)=O)[C@@H](OC(C)=O)[C@H]5OC(C)=O)nn4)[C@H]3OCc3cn(CCCO[C@@H]4O[C@H](COC(C)=O)[C@@H](O)[C@H](O)[C@H]4O[C@@H]4O[C@@H](C)[C@H](OC(C)=O)[C@@H](OC(C)=O)[C@H]4OC(C)=O)nn3)nn2)[C@H](O[C@@H]2O[C@@H](C)[C@H](OC(C)=O)[C@@H](OC(C)=O)[C@H]2OC(C)=O)[C@@H](O)[C@@H]1O` are 4.89 and 4.66.
As to `CCCCCCCCCCCCCCCCO[C@@H]1O[C@H](COC(C)=O)[C@@H](O)[C@H](O)[C@H]1O[C@@H]1O[C@@H](C)[C@H](OC(C)=O)[C@@H](OC(C)=O)[C@H]1OC(C)=O`, the pIC50 in the data set with Plasmodium falciparum [3] (setting [5]) was 4.61; in the data set on Plasmodium falciparum [4] (setting [6]) it was 4.76. Besides, the Activity entry in the data set on HEK293 [1] is recorded as “Non-Toxic”; in the data set with HEK293 [2], “Toxic”.
Consider `CC(=O)OC[C@H]1O[C@@H](OCCCn2cc(COCC(COCc3cn(CCCO[C@@H]4O[C@H](COC(C)=O)[C@@H](O)[C@H](O)[C@H]4O[C@@H]4O[C@@H](C)[C@H](OC(C)=O)[C@@H](OC(C)=O)[C@H]4OC(C)=O)nn3)(COCc3cn(CCCO[C@@H]4O[C@H](COC(C)=O)[C@@H](O)[C@H](O)[C@H]4O[C@@H]4O[C@@H](C)[C@H](OC(C)=O)[C@@H](OC(C)=O)[C@H]4OC(C)=O)nn3)COCc3cn(CCCO[C@@H]4O[C@H](COC(C)=O)[C@@H](O)[C@H](O)[C@H]4O[C@@H]4O[C@@H](C)[C@H](OC(C)=O)[C@@H](OC(C)=O)[C@H]4OC(C)=O)nn3)nn2)[C@H](O[C@@H]2O[C@@H](C)[C@H](OC(C)=O)[C@@H](OC(C)=O)[C@H]2OC(C)=O)[C@@H](O)[C@@H]1O`, for which the pIC50 in the data set on Plasmodium falciparum [3] (setting [5]) is 4.55; with Plasmodium falciparum [4] (setting [6]) it was 4.60.
As to `CC(=O)OC[C@H]1O[C@@H](OCCCN=[N+]=[N-])[C@H](O[C@@H]2O[C@@H](C)[C@H](OC(C)=O)[C@@H](OC(C)=O)[C@H]2OC(C)=O)[C@@H](O)[C@@H]1O`, the results for the pIC50 in the data set on Plasmodium falciparum [3] (setting [5]) and in the data set with Plasmodium falciparum [4] (setting [6]) were 4.23 and 4.38, respectively. Besides, the Activity result in the data set with HEK293 [1] and in the data set with HEK293 [2] was “Non-Toxic” throughout.
On to `CO[C@@H]1O[C@H](COC(C)=O)[C@@H](O)[C@H](O)[C@H]1O[C@@H]1O[C@@H](C)[C@H](OC(C)=O)[C@@H](OC(C)=O)[C@H]1OC(C)=O`, for which the values for the negative-log IC50 (pIC50) in the data set with Plasmodium falciparum [3] (setting [5]) and in the data set with Plasmodium falciparum [4] (setting [6]) were 3.84 and 4.00, respectively.
`CC(=O)OC[C@H]1O[C@@H](OCCCn2cc(COCCOCc3cn(CCCO[C@@H]4O[C@H](COC(C)=O)[C@@H](O)[C@H](O)[C@H]4O[C@@H]4O[C@@H](C)[C@H](OC(C)=O)[C@@H](OC(C)=O)[C@H]4OC(C)=O)nn3)nn2)[C@H](O[C@@H]2O[C@@H](C)[C@H](OC(C)=O)[C@@H](OC(C)=O)[C@H]2OC(C)=O)[C@@H](O)[C@@H]1O`: the pIC50 is 4.38 in the data set with Plasmodium falciparum [3] (setting [5]) and 4.43 in the data set on Plasmodium falciparum [4] (setting [6]).
